Measurements reported in US12122761B2, “2-azaspiro[3.4]octane derivatives as M4 agonists” (NOVARTIS AG, priority 2019, dated 2024).

Columns and labels:
[1] = target: T1, human cloned CHRM2 receptor (M2_CHO cells) (Homo sapiens, UniProt P08172); experiment: CHRM2 Ca++ Flux Assay (agonist mode, FDSS 7000EX); format: cell-based; conditions: for M2 FDSS PA / Emax: Percent Activity measured to EC100 of Carbachol; for Emax: read-out: M2 FDSS PA; for EC50: agonist mode, geometric mean if tested more than once, read-out: M2 FDSS EC50
T1 construct: expressed in transfected cells; host or cells: CHO-K1
T1 sequence (P08172 1-466): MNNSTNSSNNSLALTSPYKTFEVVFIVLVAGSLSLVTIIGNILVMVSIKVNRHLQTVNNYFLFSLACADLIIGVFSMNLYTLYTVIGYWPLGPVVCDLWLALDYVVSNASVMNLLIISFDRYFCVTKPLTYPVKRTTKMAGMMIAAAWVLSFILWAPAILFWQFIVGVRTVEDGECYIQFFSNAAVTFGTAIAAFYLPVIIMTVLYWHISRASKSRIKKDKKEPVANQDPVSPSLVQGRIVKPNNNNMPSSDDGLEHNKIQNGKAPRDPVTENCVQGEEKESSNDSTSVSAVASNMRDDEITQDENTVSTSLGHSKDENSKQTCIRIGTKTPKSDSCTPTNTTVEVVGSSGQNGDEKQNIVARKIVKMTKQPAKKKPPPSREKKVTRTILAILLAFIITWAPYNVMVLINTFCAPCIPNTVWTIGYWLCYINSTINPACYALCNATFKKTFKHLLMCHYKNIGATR
Outline: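 Response expressed as percent activity versus the Carbachol EC100, with curves fitted by four-parameter non-linear regression of triplicates. Stable M2_CHO cells were Ca++ dye-loaded and preincubated 60 min at room temperature in assay buffer containing 20 μM ATP; signal imaged for 3 minutes after compound.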

[2] = target: T2, human cloned CHRM4 receptor (M4_CHO cells) (Homo sapiens, UniProt P08173); experiment: CHRM4 Ca++ Flux Assay (agonist mode, FDSS 7000EX); format: cell-based; conditions: for M4 FDSS PA / Emax: Percent Activity; for EC50: geometric mean if tested more than once, read-out: M4 FDSS EC50; for Emax: read-out: M4 FDSS PA
T2 construct: expressed in transfected cells; host or cells: CHO-K1
T2 sequence (P08173 1-479): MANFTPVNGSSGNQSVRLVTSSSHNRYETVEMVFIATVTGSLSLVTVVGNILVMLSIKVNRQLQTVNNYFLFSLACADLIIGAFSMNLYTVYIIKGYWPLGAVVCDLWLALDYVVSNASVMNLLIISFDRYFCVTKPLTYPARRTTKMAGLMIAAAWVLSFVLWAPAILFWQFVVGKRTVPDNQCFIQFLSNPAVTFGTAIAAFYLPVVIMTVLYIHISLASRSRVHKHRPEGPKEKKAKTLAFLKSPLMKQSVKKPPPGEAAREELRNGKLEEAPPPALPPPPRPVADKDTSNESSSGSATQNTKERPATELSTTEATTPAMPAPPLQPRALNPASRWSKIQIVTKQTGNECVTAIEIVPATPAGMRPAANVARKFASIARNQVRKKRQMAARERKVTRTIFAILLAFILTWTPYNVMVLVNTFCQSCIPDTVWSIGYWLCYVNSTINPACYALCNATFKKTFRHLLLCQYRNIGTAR
Outline: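 Agonist-mode response was expressed as percent of the Carbachol EC100 and fitted with four-parameter nonlinear regression over an 11-point triplicate dose series. Intracellular Ca++ was tracked for 3 min by fluorescent dye in CHO-K1 cells stably expressing human CHRM4. Cells were preincubated 60 min with 20 μM ATP in buffer containing 2.5 mM probenecid.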

Row | Compound | M2 FDSS PA [1] [%] | M4 FDSS PA [2] [%] | EC50 [2] [µM] | Emax [1] [%] | Emax [2] [%] | EC50 [1] [µM]
1 | COc1ccccc1C1CCN([C@@H]2CCC3(C2)CN(c2cccnn2)C3)CC1 [Example 5O, (R)-6-(4-(2-methoxyphenyl)piperidin-1-yl)-2-(pyridazin-3-yl)-2-azaspiro[3.4]octane] | – | – | 0.055 | 0 | 39 | –
2 | COc1ccccc1C1CCN([C@@H]2CCC3(C2)CN(c2cncc(C)n2)C3)CC1 [Example 5G, (R)-6-(4-(2-methoxyphenyl)piperidin-1-yl)-2-(6-methylpyrazin-2-yl)-2-azaspiro[3.4]octane] | – | – | > 25 | 0 | 1 | –
3 | O=C(N1CC2(CC[C@@H](N3CCC(c4ccccc4OC4CC5(COC5)C4)CC3)C2)C1)C1(F)CC1 (single isomer, unassigned) [Example 11D, (R)-(6-(4-(2-((2-oxaspiro[3.3]heptan-6-yl)oxy)phenyl)piperidin-1-yl)-2-azaspiro[3.4]octan-2-yl)(1-fluorocyclopropyl)methanone or (S)-(6-(4-(2-((2-oxaspiro[3.3]heptan-6-yl)oxy)phenyl)piperidin-1-yl)-2-azaspiro[3.4]octan-2-yl)(1-fluorocyclopropyl)methanone] | 0 | 38 | 0.097 | – | – | –
4 | O=C(N1CC2(CC[C@@H](N3CCC(c4cc(F)ccc4C4CCOCC4)CC3)C2)C1)C1(F)CC1 (single isomer, unassigned) [Example 9L, (R)-(6-(4-(5-fluoro-2-(tetrahydro-2H-pyran-4-yl)phenyl)piperidin-1-yl)-2-azaspiro[3.4]octan-2-yl)(1-fluorocyclopropyl)methanone or (S)-(6-(4-(5-fluoro-2-(tetrahydro-2H-pyran-4-yl)phenyl)piperidin-1-yl)-2-azaspiro[3.4]octan-2-yl)(1-fluorocyclopropyl)methanone] | 0 | 49 | 0.026 | – | – | –
5 | O=C(N1CC2(CC[C@@H](N3CCC(c4cc(F)ccc4OC4CC5(COC5)C4)CC3)C2)C1)C1(F)CC1 (single isomer, unassigned) [Example 11B, (R)-(6-(4-(2-((2-oxaspiro[3.3]heptan-6-yl)oxy)-5-fluorophenyl)piperidin-1-yl)-2-azaspiro[3.4]octan-2-yl)(1-fluorocyclopropyl)methanone or (S)-(6-(4-(2-((2-oxaspiro[3.3]heptan-6-yl)oxy)-5-fluorophenyl)piperidin-1-yl)-2-azaspiro[3.4]octan-2-yl)(1-fluorocyclopropyl)methanone] | 0 | 51 | 0.002 | – | – | –
6 | Cc1nnc(COc2ccccc2C2CCN([C@@H]3CCC4(C3)CN(C(=O)C3(F)CC3)C4)CC2)s1 (single isomer, unassigned) [Example 7R, (R)-(1-fluorocyclopropyl)(6-(4-(2-((5-methyl-1,3,4-thiadiazol-2-yl)methoxy)phenyl)piperidin-1-yl)-2-azaspiro[3.4]octan-2-yl)methanone or (S)-(1-fluorocyclopropyl)(6-(4-(2-((5-methyl-1,3,4-thiadiazol-2-yl)methoxy)phenyl)piperidin-1-yl)-2-azaspiro[3.4]octan-2-yl)methanone] | 15 | 36 | 0.062 | – | – | 6.59
7 | COc1ccc(Cl)cc1C1CCN([C@@H]2CCC3(C2)CN(c2ccnnc2)C3)CC1 [Example 5P, (R)-6-(4-(5-chloro-2-methoxyphenyl)piperidin-1-yl)-2-(pyridazin-4-yl)-2-azaspiro[3.4]octane] | – | – | 0.043 | 16 | 55 | –

These reach a lower EC50 [2]. Values come first.

Row | M2 FDSS PA [1] [%] | M4 FDSS PA [2] [%] | EC50 [2] [µM] | Emax [1] [%] | Emax [2] [%] | EC50 [1] [µM] | Compound
8 | 0 | 50 | 0.001 | – | – | – | O=C(N1CC2(CC[C@@H](N3CCC(c4ccccc4OCc4ncccn4)CC3)C2)C1)C1(F)CC1 (single isomer, unassigned) [Example 7M, (R)-(1-fluorocyclopropyl)(6-(4-(2-(pyrimidin-2-ylmethoxy)phenyl)piperidin-1-yl)-2-azaspiro[3.4]octan-2-yl)methanone or (S)-(1-fluorocyclopropyl)(6-(4-(2-(pyrimidin-2-ylmethoxy)phenyl)piperidin-1-yl)-2-azaspiro[3.4]octan-2-yl)methanone]
9 | – | – | < 0.0004 | 15 | 75 | 0.017 | c1ccc(C2CCN([C@@H]3CCC4(C3)CN(c3nnco3)C4)CC2)c(OC[C@H]2COCCO2)c1 [Example 1C, 2-((R)-6-(4-(2-(((R)-1,4-dioxan-2-yl)methoxy)phenyl)piperidin-1-yl)-2-azaspiro[3.4]octan-2-yl)-1,3,4-oxadiazole]
10 | 0 | 81 | 0.001 | – | – | – | O[C@H]1CC[C@@H](c2ccccc2C2CCN([C@@H]3CCC4(C3)CN(c3nnco3)C4)CC2)CC1 (single isomer, unassigned) [Example 2N, (1S,4s)-4-(2-(1-((R)-2-(1,3,4-oxadiazol-2-yl)-2-azaspiro[3.4]octan-6-yl)piperidin-4-yl)phenyl)cyclohexan-1-ol or (1R,4r)-4-(2-(1-((R)-2-(1,3,4-oxadiazol-2-yl)-2-azaspiro[3.4]octan-6-yl)piperidin-4-yl)phenyl)cyclohexan-1-ol]
11 | 0 | 68 | 0.001 | – | – | – | O=C(N1CC2(CC[C@@H](N3CCC(c4ccccc4OCCO)CC3)C2)C1)C1(F)CC1 (single isomer, unassigned) [Example 7N, (R)-(1-fluorocyclopropyl)(6-(4-(2-(2-hydroxyethoxy)phenyl)piperidin-1-yl)-2-azaspiro[3.4]octan-2-yl)methanone or (S)-(1-fluorocyclopropyl)(6-(4-(2-(2-hydroxyethoxy)phenyl)piperidin-1-yl)-2-azaspiro[3.4]octan-2-yl)methanone]
12 | 28 | 89 | < 0.0004 | – | – | 0.09 | OC1CCC(c2ccccc2C2CCN([C@@H]3CCC4(C3)CN(c3nnco3)C4)CC2)CC1 (single isomer, unassigned) [Example 2O, (1s,4r)-4-(2-(1-((R)-2-(1,3,4-oxadiazol-2-yl)-2-azaspiro[3.4]octan-6-yl)piperidin-4-yl)phenyl)cyclohexan-1-ol or (1r,4r)-4-(2-(1-((R)-2-(1,3,4-oxadiazol-2-yl)-2-azaspiro[3.4]octan-6-yl)piperidin-4-yl)phenyl)cyclohexan-1-ol]
13 | – | – | 0.001 | 0 | 61 | – | COc1ccccc1C1CCN([C@@H]2CCC3(C2)CN(c2cnccn2)C3)CC1 [Example 5H, (R)-6-(4-(2-methoxyphenyl)piperidin-1-yl)-2-(pyrazin-2-yl)-2-azaspiro[3.4]octane]
